Test results published in patent publication US20250073186A1, “COMBINATION TREATMENT METHODS” (Rose Research Center, LLC, priority 2021, published 2025).

Experiments:
smokers [1] = conditions: bupropion alone; cited from earlier work
smokers [2] = conditions: cited from earlier work
cigarette smoking adults = test: Open-label switching study: side effects (AE/SAE reporting) and adherence; format: in vivo, human; conditions: zonisamide added to bupropion
Procedure: There was a data collection period of at least five days to obtain baseline data on use of combustible cigarettes. Participants enrolled in the study received a G6 e-cigarette at V2 for ad libitum use.
At each session, expired air CO was measured along with blood pressure, heart rate, respiratory rate and body weight. Participants also completed questionnaires rating subjective effects of smoking and e-cigarette use. Participants were given enough cartomizers and study drugs to last until their next scheduled session, along with an extra 4 days' worth to allow for flexibility in case sessions need to be rescheduled. E-cigarette usage and study drug compliance were tracked not only by self-reported number of occasions used, but also by cartomizer counts (used or unused) and returned study drugs.
AE/SAE Reporting AEs/SAEs were assessed using questionnaires and interviews at the indicated time points and spontaneous reporting from the time of ICF signature until the EOS for the participant.

Row | Structure (SMILES) | typical abstinence rate (smokers [1]) | effect on anger, restlessness and impatience (smokers [2]; during smoking abstinence) | effect on ad libitum smoking (smokers [2]; in vivo) | effect on craving for cigarettes (smokers [2]; in vivo) | effect on adverse events associated with bupropion, such as insomnia (cigarette smoking adults)
1 | CC(NC(C)(C)C)C(=O)c1cccc(Cl)c1 (centres unmarked) [bupropion] | ~25% | – | – | – | –
2 | NS(=O)(=O)Cc1noc2ccccc12 [zonisamide] | – | decrease anger, restlessness and impatience | reduce ad libitum smoking | relieve craving for cigarettes | appeared to reduce incidences of adverse events associated with bupropion
